Measured values taken from ChEMBL document CHEMBL4325829, “Design and Synthesis of Tubulin and Histone Deacetylase Inhibitor Based on iso-Combretastatin A-4” (J Med Chem, 2018).
Converted amounts (≈) assume the structure as drawn. The source made the active and inactive calls. The rule behind the calls is not given here.

Tests used:
[1] = Inhibition of sheep brain tubulin polymerization assessed as reduction in rate of microtubule assembly by DAPI-fluorescence based assay; parameters: species or system Ovis aries
[2] = system: HCT-116; test: Antiproliferative activity against human HCT116 cells after 72 hrs by MTS assay; type: functional
[3] = Induction of apoptosis in human BL2 cells assessed as late apoptotic cells at 10 nM after 48 hrs by annexin V-FITC/propidium iodide double staining-based flow cytometry (reference value: 2.1%); type: functional
[4] = Induction of apoptosis in human BL2 cells assessed as early apoptotic cells at 10 nM after 48 hrs by annexin V-FITC/propidium iodide double staining-based flow cytometry (reference value: 8.2%); type: functional
[5] = organism: Ovis aries; test: Inhibition of sheep brain tubulin polymerization assessed as reduction in rate of microtubule assembly at 200 uM by DAPI-fluorescence based assay
[6] = molecular target: T1, Histone deacetylase 8 (Homo sapiens, UniProt Q9BY41); test: Inhibition of human recombinant HDAC8 after 30 mins using fluorogenic substrate by fluorimetric assay; conditions: read-out: IC50
T1 sequence (Q9BY41 whole entry): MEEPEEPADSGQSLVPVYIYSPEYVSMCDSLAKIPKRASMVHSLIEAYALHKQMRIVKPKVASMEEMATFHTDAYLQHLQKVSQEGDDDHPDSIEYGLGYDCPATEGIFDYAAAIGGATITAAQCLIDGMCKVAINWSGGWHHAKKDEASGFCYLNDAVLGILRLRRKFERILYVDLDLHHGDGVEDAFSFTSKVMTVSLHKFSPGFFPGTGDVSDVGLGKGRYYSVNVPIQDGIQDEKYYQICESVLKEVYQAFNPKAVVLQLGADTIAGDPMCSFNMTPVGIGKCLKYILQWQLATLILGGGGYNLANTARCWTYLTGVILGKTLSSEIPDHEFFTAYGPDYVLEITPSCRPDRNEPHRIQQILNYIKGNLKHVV

[7] = molecular target: T2, Protein deacetylase HDAC6 (Homo sapiens, UniProt Q9UBN7)
T2 sequence (Q9UBN7 whole entry): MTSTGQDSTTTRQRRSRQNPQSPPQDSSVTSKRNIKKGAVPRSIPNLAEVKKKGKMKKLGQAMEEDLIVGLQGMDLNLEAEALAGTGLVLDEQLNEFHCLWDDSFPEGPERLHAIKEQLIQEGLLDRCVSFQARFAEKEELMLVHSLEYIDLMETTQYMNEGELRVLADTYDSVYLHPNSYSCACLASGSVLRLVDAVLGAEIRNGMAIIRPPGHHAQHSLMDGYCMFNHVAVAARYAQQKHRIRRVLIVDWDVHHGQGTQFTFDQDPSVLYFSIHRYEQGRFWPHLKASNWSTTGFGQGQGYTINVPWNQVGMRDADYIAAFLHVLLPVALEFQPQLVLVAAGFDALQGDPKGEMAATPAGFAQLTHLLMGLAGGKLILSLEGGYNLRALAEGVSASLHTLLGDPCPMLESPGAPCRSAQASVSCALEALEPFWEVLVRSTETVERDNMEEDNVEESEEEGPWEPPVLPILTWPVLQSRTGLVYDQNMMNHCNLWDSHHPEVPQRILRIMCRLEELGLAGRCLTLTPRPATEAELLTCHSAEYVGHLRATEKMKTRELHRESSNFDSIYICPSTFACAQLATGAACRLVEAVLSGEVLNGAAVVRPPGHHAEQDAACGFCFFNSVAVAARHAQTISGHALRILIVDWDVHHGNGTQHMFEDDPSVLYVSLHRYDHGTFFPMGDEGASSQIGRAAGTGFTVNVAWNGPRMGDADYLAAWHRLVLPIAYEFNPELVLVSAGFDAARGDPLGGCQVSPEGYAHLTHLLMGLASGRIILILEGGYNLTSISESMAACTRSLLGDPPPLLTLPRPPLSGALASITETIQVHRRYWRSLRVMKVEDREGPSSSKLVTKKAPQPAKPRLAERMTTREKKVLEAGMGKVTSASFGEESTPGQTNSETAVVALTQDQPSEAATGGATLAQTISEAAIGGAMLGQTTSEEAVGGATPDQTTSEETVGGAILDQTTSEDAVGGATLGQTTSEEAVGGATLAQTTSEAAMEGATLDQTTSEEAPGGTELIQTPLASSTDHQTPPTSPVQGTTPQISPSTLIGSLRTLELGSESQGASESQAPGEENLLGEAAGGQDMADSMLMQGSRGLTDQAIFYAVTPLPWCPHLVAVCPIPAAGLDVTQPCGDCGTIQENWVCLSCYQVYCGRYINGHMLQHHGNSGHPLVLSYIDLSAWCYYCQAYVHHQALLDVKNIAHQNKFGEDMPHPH
Description: Inhibition of human recombinant HDAC6 after 30 mins using fluorogenic substrate by fluorimetric assay

[8] = molecular target: T3, Histone deacetylase 11 (Homo sapiens, UniProt Q96DB2); test: Inhibition of human recombinant HDAC11 after 30 mins using fluorogenic substrate by fluorimetric assay; conditions: read-out: IC50
T3 sequence (Q96DB2 whole entry): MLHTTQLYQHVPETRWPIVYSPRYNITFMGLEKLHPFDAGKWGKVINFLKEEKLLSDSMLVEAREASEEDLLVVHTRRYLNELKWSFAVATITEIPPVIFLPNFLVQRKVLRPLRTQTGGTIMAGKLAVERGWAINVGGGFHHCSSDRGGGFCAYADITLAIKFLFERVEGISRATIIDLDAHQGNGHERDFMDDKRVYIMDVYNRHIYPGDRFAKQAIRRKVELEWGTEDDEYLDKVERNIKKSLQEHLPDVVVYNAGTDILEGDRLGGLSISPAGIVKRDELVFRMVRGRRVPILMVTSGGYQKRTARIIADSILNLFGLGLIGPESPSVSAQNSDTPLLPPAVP

[9] = system: MIA PaCa-2; test: Antiproliferative activity against human MIAPaCa2 cells after 72 hrs by MTS assay; type: functional
[10] = system: K562; test: Antiproliferative activity against human K562 cells after 72 hrs by MTS assay; type: functional
[11] = system: A549; test: Antiproliferative activity against human A549 cells after 72 hrs by MTS assay; type: functional
[12] = system: HT-29; test: Antiproliferative activity against human HT-29 cells after 72 hrs by MTS assay; type: functional
[13] = molecular target: T4, Histone deacetylase (Homo sapiens) (UniProt Q13547+O15379+Q9UBN7+Q92769+Q9UQL6+Q8WUI4+Q9BY41+Q96DB2+P56524+Q9UKV0+Q969S8); test: Inhibition of HDAC in human HT-29 cells assessed as phosphorylated gamma-H2AX levels at 302 nM after 3 days by Western blot analysis relative to control; type: cell-based
[14] = molecular target: T5, Protein deacetylase HDAC6 (Homo sapiens) (UniProt Q9UBN7); test: Inhibition of HDAC6 in human HT-29 cells assessed as acetylated alpha-tubulin levels at 25 uM after 6 hrs by Western blot analysis relative to control; type: cell-based
T5 sequence (whole entry): T2 sequence (Q9UBN7 whole entry)

[15] = molecular target: T4, Histone deacetylase (Homo sapiens); test: Inhibition of HDAC in human HT-29 cells assessed as gamma-H2AX phosphorylation after 3 days by Western blot analysis; type: cell-based
[16] = molecular target: T6, Histone deacetylase 8 (Homo sapiens) (UniProt Q9BY41); test: Inhibition of HDAC8 in human HT-29 cells assessed as acetylated SMC3 levels at 25 uM after 24 hrs by Western blot analysis relative to control; type: cell-based
T6 sequence (whole entry): T1 sequence (Q9BY41 whole entry)

[17] = molecular target: T5, Protein deacetylase HDAC6 (Homo sapiens); test: Inhibition of HDAC6 in human HT-29 cells assessed as acetylated alpha-tubulin levels at 25 uM after 24 hrs by Western blot analysis relative to control; type: cell-based
[18] = Lipophilicity, log P of the compound; type: physicochemical; conditions: octanol/water; read-out: logP
[19] = Aqueous solubility of the compound; type: physicochemical; conditions: water
[20] = system: BXPC-3; test: Antiproliferative activity against human BxPC3 cells after 72 hrs by MTS assay; type: functional
[21] = system: U-87 MG; test: Antiproliferative activity against human U87 cells after 72 hrs by MTS assay; type: functional, U-87MG ATCC
[22] = system: PC-3; test: Antiproliferative activity against human PC3 cells after 72 hrs by MTS assay; type: functional
[23] = molecular target: T4, Histone deacetylase (Homo sapiens); test: Inhibition of HDAC in human HT-29 cells assessed as phosphorylated gamma-H2AX levels at 605 nM after 3 days by Western blot analysis relative to control; type: cell-based
[24] = system: K-562R; test: Antiproliferative activity against human K562R cells after 72 hrs by MTS assay; type: functional
[25] = molecular target: T6, Histone deacetylase 8 (Homo sapiens); test: Inhibition of HDAC8 in human HT-29 cells assessed as acetylated SMC3 levels at 25 uM after 6 hrs by Western blot analysis relative to control; type: cell-based
[26] = system: MCF7; test: Antiproliferative activity against human MCF7 cells after 72 hrs by MTS assay; type: functional
[27] = system: HT-29; test: Antiproliferative activity against human HT-29 cells in presence of isoCA-4 after 72 hrs by MTS assay relative to control; type: functional, cell-based; conditions: HT-29, 72 h
[28] = system: HT-29; test: Antiproliferative activity against human HT-29 cells assessed as cell viability after 72 hrs by MTS assay relative to control; type: functional

## C=C(c1cc(OC)c(OC)c(OC)c1)c1ccc2c(c1)c(C(=O)NO)cn2C
[1]
  IC50: 7300 nM
[2]; Homo sapiens, HCT-116, 72 h
  GI50: 30 nM

## C=C(c1cc(OC)c(OC)c(OC)c1)c1ccc2c(ccn2CCC(=O)NO)c1
[1]
  IC50: 22000 nM
[2]; Homo sapiens, HCT-116, 72 h
  GI50: 393 nM

## O=C(CCCCCCC(=O)Nc1ccccc1)NO [VORINOSTAT]
[3]
  Activity: 1.8%
[4]
  Activity: 6.7%

## C=C(c1ccc(OC)c(OCCCCCCC(=O)OCC)c1)c1cc(OC)c(OC)c(OC)c1
[5]
  inhibition: inactive
[2]; Homo sapiens, HCT-116, 72 h
  GI50: 3000 nM

## C=C(c1cc(OC)c(OC)c(OC)c1)c1ccc2c(c1)c(/C=C/C(=O)NO)cn2C
[1]
  IC50: 3700 nM
[6]
  IC50: 240 nM
[7]
  IC50: 6900 nM
[8]
  IC50: 5000 nM
[2]; Homo sapiens, HCT-116, 72 h
  GI50: 14 nM

## C=C(c1cc(OC)c(OC)c(OC)c1)c1ccc(OC)cc1/C=C/C(=O)NO
[9]; Homo sapiens, MIA PaCa-2, 72 h
  GI50: 18 nM
[10]; Homo sapiens, K562, 72 h
  GI50: 20 nM
[11]; Homo sapiens, A549, 72 h
  GI50: 22 nM
[12]; Homo sapiens, HT-29, 72 h
  GI50: 63.6 nM
[13]
  fold change (FC): 1.3
[1]
  IC50: 2100 nM
[14]
  fold change (FC): 0.3
[15]
  inhibition: Dose-dependent effect
[16]
  fold change (FC): 2.7
[17]
  fold change (FC): 0.9
[18]
  logP: 2.13
[19]
  solubility: 88.3 µg/mL (≈ 229 µM)
[20]; Homo sapiens, BXPC-3, 72 h
  GI50: 25 nM
[21]; Homo sapiens, U-87 MG, 72 h
  GI50: 11 nM
[22]; Homo sapiens, PC-3, 72 h
  GI50: 28 nM
[23]
  fold change (FC): 2.9
[24]; Homo sapiens, K-562R, 72 h
  GI50: 80 nM
[25]
  fold change (FC): 1.6
[26]; Homo sapiens, MCF7, 72 h
  GI50: 17 nM
[6]
  IC50: 60 nM
[7]
  IC50: 5000 nM
[8]
  IC50: 8000 nM
[2]; Homo sapiens, HCT-116, 72 h
  GI50: 8 nM

## C=C(c1ccc(OC)c(OCCCC(=O)OCC)c1)c1cc(OC)c(OC)c(OC)c1
[5]
  inhibition: inactive
[2]; Homo sapiens, HCT-116, 72 h
  GI50: 1000 nM

## COc1ccc(Cn2ccc3ccc(C(=O)NO)cc32)cc1
[9]; Homo sapiens, MIA PaCa-2, 72 h
  GI50: > 20000 nM
[10]; Homo sapiens, K562, 72 h
  GI50: 2010 nM
[11]; Homo sapiens, A549, 72 h
  GI50: > 20000 nM
[12]; Homo sapiens, HT-29, 72 h
  GI50: > 10000 nM
[14]
  fold change (FC): 0.5
[16]
  fold change (FC): 4.8
[17]
  fold change (FC): 1.7
[20]; Homo sapiens, BXPC-3, 72 h
  GI50: > 20000 nM
[21]; Homo sapiens, U-87 MG, 72 h
  GI50: > 15000 nM
[22]; Homo sapiens, PC-3, 72 h
  GI50: 2660 nM
[24]; Homo sapiens, K-562R, 72 h
  GI50: 2200 nM
[25]
  fold change (FC): 3.1
[26]; Homo sapiens, MCF7, 72 h
  GI50: 2970 nM
[2]; Homo sapiens, HCT-116, 72 h
  GI50: 2640 nM

## C=C(c1cc(OC)c(OC)c(OC)c1)c1ccc(OC)c(C(=O)Nc2ccccc2N)c1
[5]
  inhibition: inactive
[2]; Homo sapiens, HCT-116, 72 h
  GI50: 340 nM

## C=C(c1cc(OC)c(OC)c(OC)c1)c1ccc(OC)c(C(=O)NO)c1
[1]
  IC50: 20000 nM
[2]; Homo sapiens, HCT-116, 72 h
  GI50: 233 nM

## C=C(c1ccc(OC)c(OCC(=O)OCC)c1)c1cc(OC)c(OC)c(OC)c1
[1]
  IC50: 5000 nM
[2]; Homo sapiens, HCT-116, 72 h
  GI50: 150 nM

## CC(/C=C/C(=O)NO)=C\[C@@H](C)C(=O)c1ccc(N(C)C)cc1 [TRICHOSTATIN]
[9]
  GI50: 200 nM
[10]
  GI50: 262 nM
[11]
  GI50: 80 nM
[12]
  GI50: 34.1 nM
[27]
  IC50: 3.8 nM
[20]
  GI50: 100 nM
[21]
  GI50: 1040 nM
[28]
  Activity: <20%
[22]
  GI50: 387 nM
[24]
  GI50: 88 nM
[26]
  GI50: 45 nM
[2]
  GI50: 35 nM
